Measured values from patent publication US20250230154A1, “COMPOUND HAVING SHP2 PROTEIN DEGRADING ACTIVITY, AND MEDICAL USES THEREOF” (UBIX THERAPEUTICS, INC., priority 2021, published 2025).

Biological target: T1, SHP2 protein (Homo sapiens, UniProt Q06124)
T1 sequence (Q06124 1-593): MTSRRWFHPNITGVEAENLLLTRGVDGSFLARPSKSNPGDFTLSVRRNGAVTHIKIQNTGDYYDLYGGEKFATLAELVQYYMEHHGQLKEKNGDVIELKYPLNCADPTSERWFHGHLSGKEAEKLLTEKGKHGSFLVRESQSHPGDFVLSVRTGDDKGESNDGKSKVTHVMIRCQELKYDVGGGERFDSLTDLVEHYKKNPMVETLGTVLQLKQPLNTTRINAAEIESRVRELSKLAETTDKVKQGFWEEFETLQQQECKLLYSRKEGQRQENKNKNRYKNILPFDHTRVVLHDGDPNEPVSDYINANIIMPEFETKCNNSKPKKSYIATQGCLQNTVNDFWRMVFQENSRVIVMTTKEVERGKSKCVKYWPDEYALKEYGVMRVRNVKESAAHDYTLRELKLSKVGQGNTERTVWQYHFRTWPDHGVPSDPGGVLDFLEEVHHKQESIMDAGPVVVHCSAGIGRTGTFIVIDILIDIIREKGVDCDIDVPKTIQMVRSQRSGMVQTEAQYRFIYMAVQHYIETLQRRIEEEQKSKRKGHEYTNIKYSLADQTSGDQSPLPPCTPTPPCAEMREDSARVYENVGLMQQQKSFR
Experiment: Measurement of SHP2 protein degradation in MV-4-11 cells (western blotting)
Type: cell-based
Design: endogenous in cells; host or cells: MV-4-11
Conditions: MV-4-11 cells, 24 hours
Method: Experimental Example 2: Measurement of SHP2 Protein Degradation in MV-4-11 Cells
MV-4-11 cells were treated with the synthesized Example compound, and the amount of SHP2 protein present in the cells was measured using western blotting detection. The protocol of the experiment conducted using MV-4-11 cells was as follows:
[Culture] MV-4-11 cells resuspended in IMDM MEDIUM (Hyclone, SH30228.01) containing 5% FBS (Hyclone, SV30207.02) and 1% Penicillin-streptomycin (Welgene, LS 202-02) were seeded at a density of 1×10^6/mL/well in a 12-well plate in an amount of 1 ml each.
[Compound treatment] The 12-well plate was treated as follows: Cells were treated with compounds at a final concentration of […] made by serial dilution of 10 mM stock with DMSO in 1/100 increments […]. After 24 hours, cells were harvested. For the negative control group, DMSO diluted 1/100 to the media (3 mL DMSO+297 mL media) was added.
[Harvest] Each well was collected in a 1.5 mL microtube by pipetting with a 1 mL pipette and centrifuged (500 g, 5 min, 4° C.). The supernatant was removed. It was washed with PBS, and then centrifuged again (500 g, 5 min, 4° C.). Thereafter, the supernatant was removed to prepare a pellet.
[Cell Lysis and Sample preparation] Lysis buffer was prepared as follows: […] of RIPA buffer (Biosesang, RC2038-050-00)+0.5 mM PMSF (SIGMA, P7626)+1× Protease/Phosphatase Inhibitor (Cell signaling, 5872S) per well was added and placed on ice for 30 minutes (vortexing at 0 and 30 minutes, respectively). After sonication process (10 seconds pulse, 30 seconds rest, 5 cycles, 70% amplification), centrifugation (15000 g, 15 min, 4° C.) was performed, and then only the supernatant was taken and transferred to a microtube. The sample was diluted ¼ with RIPA buffer in a 96-well plate, and mixed with A:B=50:1 of the BCA Protein Assay Kit (iNtRON, 21071). […] each of the mixture was left at 37° C. for 30 minutes, and cooled for 10 minutes. Then, absorbance was measured at 562 nm with the SYNERGY H1 microplate reader from BioTek. After making a sample by quantifying the protein with the measured value, boiling was performed at 70° C. for 10 minutes. At this time, the sample buffer used was a mixture of NuPAGE or Bolt 4× sample buffer (Invitrogen) and each 10× sample reducing agent according to the gel to be used, and RIPA buffer was used for protein dilution.
[Western blotting detection method] The same amount of sample was loaded on NuPAGE or Bolt Bis-tris 4-12% gradient gel and run (200 V, 35 minutes). It was transferred to 0.2 mm NC membrane with Trans-blot Turbo (BIO-RAD) (1.3 A constant, 25 V limit, 15 minutes). Blocking was performed at room temperature for 1 hour with Skim milk or Intercept Blocking Buffer (LI-COR, 927-60001):0.1% TBST=1:1. Anti-SHPTP2 Mouse (1:500 in 2% BSA/0.2% TBST, size: 70 kDa, Santacruz sc-7384) was incubated overnight at 4° C., and Anti-GAPDH Rabbit (1:2,000 in 2% BSA/0.2% TBST, size: 37 kDa, CST #2118) was incubated at room temperature for 1 hour 30 minutes or 3 hours. It was washed 3 times for 5 minutes each with 0.2% TBST washing buffer. Secondary antibody Anti-Rabbit IgG (1:5,000 in 2% BSA/0.2% TBST, CST), IRDye® 680RD Goat anti-Rabbit IgG Secondary Antibody (1:10,000 in 2% BSA/0.2% TBST, LI-COR 926-68071) were added and incubated for 45 minutes on a rocker at room temperature. It was washed 5 times for 5 minutes each with 0.2% TBST washing buffer and detected with LI-COR's Odyssey. At this time, SHPTP2 was detected using SuperSignal West Pico PLUS Chemiluminescent Substrate, and house-keeping genes were also detected.
In the results of Table 4 below, Compounds 1-7, 13-19, and 21-26 are results in KYSE-520 cells, and the others are results in MV-4-11 cells.

| Compound | SHP2 degradation (%) 10 nM [%] | SHP2 degradation (%) 100 nM [%] | SHP2 degradation (%) 1000 nM (1000 nM) [%] |
| --- | --- | --- | --- |
| Cc1ncsc1-c1ccc(CNC(=O)[C@@H]2C[C@@H](O)CN2C(=O)[C@@H](NC(=O)C2(F)CC2)C(C)(C)C)c(OCCN2CCN(c3ccc(C(=O)Nc4cccc(Sc5cnc(N6CCC(C)(CN)CC6)cn5)c4Cl)cn3)CC2)c1 [Example 82, N-(3-((5-(4-(aminomethyl)-4-methylpiperidin-1-yl)pyrazin-2-yl)thio)-2-chlorophenyl)-6-(4-(2-(2-(((2S,4R)-1-((S)-2-(1-fluorocyclopropane-1-carboxamido)-3,3-dimethylbutanoyl)-4-hydroxypyrrolidine-2-carboxamido)methyl)-5-(4-methylthiazol-5-yl)phenoxy)ethyl)piperazin-1-yl)nicotinamide] | 16.2 | 96.2 |  |
| Cc1ncsc1-c1ccc(CNC(=O)[C@@H]2C[C@@H](O)CN2C(=O)[C@@H](NC(=O)C2(F)CC2)C(C)(C)C)c(OCCN2CCN(C(=O)CC(=O)Nc3cccc(Sc4ncc(N5CCC(C)(CN)CC5)nc4N)c3Cl)CC2)c1 [Example 55, (2S,4R)—N-(2-(2-(4-(3-((3-((3-amino-5-(4-(aminomethyl)-4-methylpiperidin-1-yl)pyrazin-2-yl)thio)-2-chlorophenyl)amino)-3-oxopropanoyl)piperazin-1-yl)ethoxy)-4-(4-methylthiazol-5-yl)benzyl)-1-((S)-2-(1-fluorocyclopropane-1-carboxamido)-3,3-dimethylbutanoyl)-4-hydroxypyrrolidine-2-carboxamide] | 85.9 | 97.8 |  |
| Cc1ncsc1-c1ccc(CNC(=O)[C@@H]2C[C@@H](O)CN2C(=O)[C@@H](NC(=O)C2(F)CC2)C(C)(C)C)c(OCCC2CCN(C(=O)CC(=O)Nc3cccc(Sc4ncc(N5CCC(C)(CN)CC5)nc4N)c3Cl)CC2)c1 [Example 37, (2S,4R)—N-(2-(2-(1-(3-((3-((3-amino-5-(4-(aminomethyl)-4-methylpiperidin-1-yl)pyrazin-2-yl)thio)-2-chlorophenyl)amino)-3-oxopropanoyl)piperidin-4-yl)ethoxy)-4-(4-methylthiazol-5-yl)benzyl)-1-((S)-2-(1-fluorocyclopropane-1-carboxamido)-3,3-dimethylbutanoyl)-4-hydroxypyrrolidine-2-carboxamide] | 80.5 | 89.5 | 90.5 |
| CC(=O)N[C@H](C(=O)N1C[C@H](O)C[C@H]1C(=O)NCc1ccc(-c2scnc2C)cc1OCCCC1CCN(C(=O)CC(=O)Nc2cccc(Sc3cnc(N4CCC(C)(CN)CC4)cn3)c2Cl)CC1)C(C)(C)C [Example 43, (2S,4R)-1-((S)-2-acetamido-3,3-dimethylbutanoyl)-N-(2-(3-(1-(3-((3-((5-(4-(aminomethyl)-4-methylpiperidin-1-yl)pyrazin-2-yl)thio)-2-chlorophenyl)amino)-3-oxopropanoyl)piperidin-4-yl)propoxy)-4-(4-methylthiazol-5-yl)benzyl)-4-hydroxypyrrolidine-2-carboxamide] | 80.0 | 96.5 |  |
| Cc1ncsc1-c1ccc(CNC(=O)[C@@H]2C[C@@H](O)CN2C(=O)[C@@H](NC(=O)C2CC2)C(C)(C)C)c(OCCCN2CCN(CC(=O)Nc3cccc(Sc4cnc(N5CCC(C)(CN)CC5)cn4)c3Cl)C(=O)C2)c1 [Example 80, (2S,4R)—N-(2-(3-(4-(2-((3-((5-(4-(aminomethyl)-4-methylpiperidin-1-yl)pyrazin-2-yl)thio)-2-chlorophenyl)amino)-2-oxoethyl)-3-oxopiperazin-1-yl)propoxy)-4-(4-methylthiazol-5-yl)benzyl)-1-((S)-2-(cyclopropanecarboxamido)-3,3-dimethylbutanoyl)-4-hydroxypyrrolidine-2-carboxamide] | 83.1 | 98.2 |  |
